The values below come from US10131644B2, “Aryl sultam derivatives as RORc modulators” (Genentech, Inc., priority 2014, dated 2018).

Molecules are shown by their SMILES.

The target of the assay is T1, RORc (Homo sapiens, UniProt P51449).
T1 sequence (P51449 269-508 limits assumed): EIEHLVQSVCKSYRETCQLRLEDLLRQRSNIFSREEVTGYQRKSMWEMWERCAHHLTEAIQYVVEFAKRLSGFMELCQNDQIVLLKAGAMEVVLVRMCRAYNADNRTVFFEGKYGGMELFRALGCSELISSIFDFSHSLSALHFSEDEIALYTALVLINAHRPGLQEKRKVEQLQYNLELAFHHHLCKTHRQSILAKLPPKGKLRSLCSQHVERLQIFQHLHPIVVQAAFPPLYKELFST
The assay is described as follows: In vitro RORc ligand binding assay (25-[3H]hydroxycholesterol displacement). Conditions: IC50, IC50 values for RORc; unit inferred.

As to `C[C@@H](NC1(c2ccc(CN3[C@@H](C)CC[C@H](c4ccccc4)S3(=O)=O)c(F)c2)CCOCC1)C(N)=O` [Compound 180, (2R)-2-[[4-[3-fluoro-4-[[(3S,6R)-3-methyl-1,1-dioxo-6-phenyl-thiazinan-2-yl]methyl]phenyl]tetrahydropyran-4-yl]amino]propanamide], the IC50 is 0.0067 µM.

Molecule `COC1(OC)CC(C(N)=O)(c2ccc(CN3[C@@H](C)CC[C@H](c4ccccc4)S3(=O)=O)c(F)c2)C1` [Compound 181, 1-[3-fluoro-4-[[(3S,6R)-3-methyl-1,1-dioxo-6-phenyl-thiazinan-2-yl]methyl]phenyl]-3,3-dimethoxy-cyclobutanecarboxamide] displayed a half-maximal inhibitory concentration (IC50) of 0.0237 µM.

Molecule `C[C@H]1CC[C@H](c2ccccc2)S(=O)(=O)N1Cc1ccc([C@]2(C(N)=O)C[C@H](O)C2)cc1F` [Compound 182, 1-[3-fluoro-4-[[(3S,6R)-3-methyl-1,1-dioxo-6-phenyl-thiazinan-2-yl]methyl]phenyl]-3-hydroxy-cyclobutanecarboxamide] showed an IC50 of 0.0373 µM.

With `C[C@H]1CC[C@H](c2ccccc2)S(=O)(=O)N1Cc1ccc([C@]2(C(N)=O)C[C@@H](O)C2)cc1F` [Compound 183, 1-[3-fluoro-4-[[(3S,6R)-3-methyl-1,1-dioxo-6-phenyl-thiazinan-2-yl]methyl]phenyl]-3-hydroxy-cyclobutanecarboxamide], the IC50 worked out at 0.0552 µM.

Turning to `CCOC(=O)[C@H](C)NC1(c2ccc(CN3[C@@H](C)CC[C@H](c4ccccc4)S3(=O)=O)c(F)c2)CCOCC1` [Compound 184, ethyl (2S)-2-[[4-[3-fluoro-4-[[(3S,6R)-3-methyl-1,1-dioxo-6-phenyl-thiazinan-2-yl]methyl]phenyl]tetrahydropyran-4-yl]amino]propanoate], the IC50 came to 0.0409 µM.

`C[C@H](NC1(c2ccc(CN3[C@@H](C)CC[C@H](c4ccccc4)S3(=O)=O)c(F)c2)CCOCC1)C(N)=O` [Compound 185, (2S)-2-[[4-[3-fluoro-4-[[(3S,6R)-3-methyl-1,1-dioxo-6-phenyl-thiazinan-2-yl]methyl]phenyl]tetrahydropyran-4-yl]amino]propanamide] gave an IC50 of 0.102 µM.

Turning to `C[C@H]1CC[C@H](c2ccccc2)S(=O)(=O)N1Cc1ccc(C2(OCC(N)=O)COC2)cc1F` [Compound 186, 2-[3-[3-fluoro-4-[[(3S,6R)-3-methyl-1,1-dioxo-6-phenyl-thiazinan-2-yl]methyl]phenyl]oxetan-3-yl]oxyacetamide], the IC50 turned out to be 0.008 µM.

With `C[C@H]1CC[C@H](c2ccccc2)S(=O)(=O)N1Cc1ccc(C2(NCCCO)CCOCC2)cc1F` [Compound 187, 3-[[4-[3-fluoro-4-[[(3S,6R)-3-methyl-1,1-dioxo-6-phenyl-thiazinan-2-yl]methyl]phenyl]tetrahydropyran-4-yl]amino]propan-1-ol], the IC50 amounted to 0.074 µM.

For the molecule `C[C@H]1CC[C@H](c2ccccc2)S(=O)(=O)N1Cc1ccc(C2(N(C)CC(N)=O)CCOCC2)cc1F` [Compound 188, 2-[[4-[3-fluoro-4-[[(3S,6R)-3-methyl-1,1-dioxo-6-phenyl-thiazinan-2-yl]methyl]phenyl]tetrahydropyran-4-yl]-methyl-amino]acetamide], the half-maximal inhibitory concentration (IC50) worked out at 0.024 µM.

`COC(CNC1(c2cc(F)c(CN3[C@@H](C)CC[C@H](c4ccccc4)S3(=O)=O)cc2F)CCOCC1)OC` [Compound 189, 4-[2,5-difluoro-4-[[(3S,6R)-3-methyl-1,1-dioxo-6-phenyl-thiazinan-2-yl]methyl]phenyl]-N-(2,2-dimethoxyethyl)tetrahydropyran-4-amine] came in with an IC50 of 0.071 µM.

Take `C[C@H]1CC[C@H](c2ccccc2)S(=O)(=O)N1Cc1cc(F)c(C2(N)COC2)cc1F` [Compound 190, 3-[2,5-difluoro-4-[[(3S,6R)-3-methyl-1,1-dioxo-6-phenyl-thiazinan-2-yl]methyl]phenyl]oxetan-3-amine]: the IC50 is 0.0715 µM.

`C[C@H]1CC[C@H](c2ccccc2)S(=O)(=O)N1Cc1cc(F)c(C2(N[S+]([O-])C(C)(C)C)COC2)cc1F` (stereo partly drawn) [Compound 191, N-[3-[2,5-difluoro-4-[[(3S,6R)-3-methyl-1,1-dioxo-6-phenyl-thiazinan-2-yl]methyl]phenyl]oxetan-3-yl]-2-methyl-propane-2-sulfinamide] returned an IC50 of 0.0553 µM.

The molecule `C[C@H]1CC[C@H](c2ccccc2)S(=O)(=O)N1Cc1cc(F)c(C2(O)COC2)cc1F` [Compound 192, 3-[2,5-difluoro-4-[[(3S,6R)-3-methyl-1,1-dioxo-6-phenyl-thiazinan-2-yl]methyl]phenyl]oxetan-3-ol] returned an IC50 of 0.00265 µM.

As for `C[C@H]1CC[C@H](c2ccccc2)S(=O)(=O)N1Cc1cc(F)c(C2(C(N)=O)CC(=O)C2)cc1F` [Compound 193, 1-[2,5-difluoro-4-[[(3S,6R)-3-methyl-1,1-dioxo-6-phenyl-thiazinan-2-yl]methyl]phenyl]-3-oxo-cyclobutanecarboxamide], the IC50 stood at 0.00807 µM.

`C[C@H]1CC[C@H](c2ccccc2)S(=O)(=O)N1Cc1cc(F)c(C2(C(N)=O)CC(F)(F)C2)cc1F` [Compound 194, 1-[2,5-difluoro-4-[[(3S,6R)-3-methyl-1,1-dioxo-6-phenyl-thiazinan-2-yl]methyl]phenyl]-3,3-difluoro-cyclobutanecarboxamide] came in with a half-maximal inhibitory concentration (IC50) of 0.00305 µM.

Molecule `C[C@H]1CC[C@H](c2ccccc2)S(=O)(=O)N1Cc1cc(F)c(C2(NCC(N)=O)COC2)cc1F` [Compound 195, 2-[[3-[2,5-difluoro-4-[[(3S,6R)-3-methyl-1,1-dioxo-6-phenyl-thiazinan-yl]methyl]phenyl]oxetan-3-yl]amino]acetamide] showed an IC50 of 0.035 µM.

Molecule `C[C@H]1CC[C@H](c2ccccc2)S(=O)(=O)N1Cc1ccc(C2(C(N)=O)CC2)cc1F` [Compound 196, 1-[3-fluoro-4-[[(3S,6R)-3-methyl-1,1-dioxo-6-phenyl-thiazinan-2-yl]methyl]phenyl]cyclopropanecarboxamide] registered an IC50 of 1.08 µM.

`C[C@H]1CC[C@H](c2ccccc2)S(=O)(=O)N1Cc1ccc(OCC2(C)CCOCC2)cc1F` [Example 2, (3S,6R)-2-[2-Fluoro-4-(4-methyl-tetrahydro-pyran-4-ylmethoxy)-benzyl]-3-methyl-6-phenyl-[1,2]thiazinane 1,1-dioxide]: the IC50 was 0.067 µM.

The molecule `C[C@H]1CC[C@H](c2ccccc2)S(=O)(=O)N1Cc1ccc(OCC2(CO)CCOCC2)cc1F` [Example 3, {4-{3-Fluoro-4-((3S,6R)-3-methyl-1,1-dioxo-6-phenyl-[1,2]thiazinan-2-ylmethyl)-phenoxymethyl]-tetrahydro-pyran-4-yl}-methanol] displayed an IC50 of 0.082 µM.

In turn, `C[C@H]1CC[C@H](c2ccccc2)S(=O)(=O)N1Cc1ccc(OCC2(CS(C)(=O)=O)CCOCC2)cc1F` [Example 4, (3S,6R)-2-[2-Fluoro-4-(4-methanesulfonylmethyl-tetrahydro-pyran-4-ylmethoxy)-benzyl]-3-methyl-6-phenyl-[1,2]thiazinane 1,1-dioxide] came in with an IC50 of 0.046 µM.

Molecule `C[C@H]1CC[C@H](c2ccccc2)S(=O)(=O)N1Cc1ccc(OCC2(F)CCOCC2)cc1F` [Example 5, (3S,6R)-2-[2-Fluoro-4-(4-fluoro-tetrahydro-pyran-4-ylmethoxy)-benzyl]-3-methyl-6-phenyl-[1,2]thiazinane 1,1-dioxide] registered an IC50 of 0.16 µM.

With `C[C@H]1CC[C@H](c2ccccc2)S(=O)(=O)N1Cc1ccc(OCC2(C#N)CCOCC2)cc1F` [Example 6, 4-{3-Fluoro-4-((3S,6R)-3-methyl-1,1-dioxo-6-phenyl-[1,2]thiazinan-2-ylmethyl)-phenoxymethyl]-tetrahydro-pyran-4-carbonitrile], the IC50 turned out to be 0.22 µM.

Molecule `CC(=O)N1CCC(O)(c2ccc(CN3[C@@H](C)CC[C@H](c4ccccc4)S3(=O)=O)cc2)CC1` [Example 7, 1-{4-Hydroxy-4-[4-((3S,6R)-3-methyl-1,1-dioxo-6-phenyl-[1,2]thiazinan-2-ylmethyl)-phenyl]-piperidin-1-yl}-ethanone] came in with an IC50 of 0.33 µM.

On to `CC(=O)N1CCC(F)(c2ccc(CN3[C@@H](C)CC[C@H](c4ccccc4)S3(=O)=O)cc2)CC1` [Example 8, 1-{4-Fluoro-4-[4-((3S,6R)-3-methyl-1,1-dioxo-6-phenyl-[1,2]thiazinan-2-ylmethyl)-phenyl]-piperidin-1-yl}-ethanone], for which the IC50 amounted to 0.2 µM.

In turn, `CC(=O)N1CCC(O)(c2ccc(CN3[C@@H](C)CC[C@H](c4ccccc4)S3(=O)=O)c(F)c2)CC1` [Example 9, 1-{4-[3-Fluoro-4-((3S,6R)-3-methyl-1,1-dioxo-6-phenyl-[1,2]thiazinan-2-ylmethyl)-phenyl]-4-hydroxy-piperidin-1-yl}-ethanone] came in with an IC50 of 0.13 µM.

With `C[C@H]1CC[C@H](c2ccccc2)S(=O)(=O)N1Cc1ccc([C@]2(C#N)CC[C@@H](n3cnnc3)CC2)cc1` [Example 10, 1-[4-((3S,6R)-3-Methyl-1,1-dioxo-6-phenyl-[1,2]thiazinan-2-ylmethyl)-phenyl]-4-[1,2,4]triazol-4-yl-cyclohexanecarbonitrile], the IC50 stood at 0.15 µM.

In turn, `COC(=O)[C@]1(c2ccc(CN3[C@@H](C)CC[C@H](c4ccccc4)S3(=O)=O)cc2)CC[C@@H](n2cnnc2)CC1` [Example 12, 1-[4-((3S,6R)-3-Methyl-1,1-dioxo-6-phenyl-[1,2]thiazinan-2-ylmethyl)-phenyl]-4-[1,2,4]triazol-4-yl-cyclohexanecarboxylic acid methyl ester] gave an IC50 of 0.63 µM.

Regarding `C[C@H]1CC[C@H](c2ccccc2)S(=O)(=O)N1Cc1ccc([C@]2(C(=O)O)CC[C@H](n3cnnc3)CC2)cc1` [Example 13, 1-[4-((3S,6R)-3-Methyl-1,1-dioxo-6-phenyl-[1,2]thiazinan-2-ylmethyl)-phenyl]-4-[1,2,4]triazol-4-yl-cyclohexane-carboxylic acid], the IC50 amounted to 2.7 µM.

A word on the IC50: it is the concentration that gives 50% inhibition. Low readings indicate inhibition by little substance, high ones a need for much substance.
